Data taken from patent US12351561B2, “Crystalline (2S,4R)-5-(5'-chloro-2'-fluoro-[1,1'-biphenyl]-4-yl)-2-(ethoxymethyl)-4-(3-hydroxyisoxazole-5-carboxamido)-2-methylpentanoic acid and uses thereof” (THERAVANCE BIOPHARMA R&D IP, LLC, priority 2016, dated 2025).

Experiments:
[1] = target: human neprilysin (NEP) (Homo sapiens, UniProt P08473); assay: in vitro human neprilysin inhibitor activity (pKi); type: biochemical
Source text: One measure of the ability of a compound to inhibit NEP activity is the inhibition constant (pKi). The pKi value is the negative logarithm to base 10 of the dissociation constant (Ki), which is typically reported in molar units. The compound of the invention has a pKi at NEP≥9.0.
The in vitro-to-in vivo extrapolation of drug behavior in a subject continues to improve (see, e.g., Chiba et al., AAPS J., 2009 June; 11 (2): 262-276). In the present invention, in vitro human neprilysin inhibitor activity was assessed in order to determine neprilysin inhibitory activity of Compound I and crystalline form I′. A threshold of pKi>9.0 was met. However, additional in vivo experiments were further performed in order to more accurately predict the behavior of Compound I and crystalline form I′ in a subject.

[2] = Stability study of crystalline form (25° C./60% RH and accelerated 40° C./75% RH); type: physicochemical
Experimental: One challenge in pharmaceutical drug development relates to discovering a stable, crystalline form of a drug having a reasonably high melting point. One challenge of the present invention was that small crystals of the free acid of Compound I were difficult to obtain with the favorable physical properties mentioned above. Once achieved, the small crystals melted around 216° C. and an accelerated stability study of Compound I′ was conducted at the temperatures and % relative humidity (RH) reported below.

[3] = Dynamic moisture sorption (DMS) assessment; type: physicochemical
Experimental: In one embodiment, crystalline form I′ is characterized by the DMS isotherm in FIG. 4. […] The total moisture gain observed is less than 0.02% by weight when exposed to 5-90% relative humidity. No significant hysteresis is found between two consecutive sorption-desorption cycles. […] The crystalline form I′ remains non-hygroscopic and therefore may be characterized as anhydrous, non-hygroscopic or both.
DMS measurements were performed using a VTI atmospheric microbalance, SGA-100 system (VTI Corp., Hialeah, FL 33016). A weighed sample was used and the humidity was lowest possible value (close to 0% relative humidity) at the start of the analysis. The DMS analysis consisted of a scan rate of 5% relative humidity/step over the full humidity range of 5-90%. The DMS run was performed isothermally at 25° C.

[4] = target: T1, NEP (Homo sapiens, UniProt P08473); assay: Assay 4.1: NEP activity in human (cGMP), multiple-ascending dose study; type: in vivo; conditions: once-daily dose, trough (0 h) up to 24 h
T1 construct: from tissue; host or cells: healthy human volunteers (in vivo)
Experimental: The Phase 1 study was a double-blind, randomized placebo-controlled multiple ascending dose study in healthy male and female volunteers randomized in a 4:1 ratio. The study enrolled 50 healthy adult (19-55 years old) and elderly (65-80 years old) volunteers over multiple weeks for the ascending-dose portion, which included cohorts (n=10/cohort of 8 active and 2 placebo) administered (1) ascending doses of 50 mg, 100 mg, and 200 mg, (2) a dose of 10 mg studied in parallel with 200 mg for PK/PK, and (3) a dose of 100 mg for one elderly cohort. […] Additionally, renal elimination of Compound I was neglible after multiple dosing, e.g., <1% was observed on Day 1 and Day 14 for all subjects.
Part of the MAD clinical studies was to determine the mechanism/duration of action of Compound I after dosing in humans.

[5] = Assay 3.2: PK profile, oral bioavailability and renal excretion in human (SAD, 14C i.v. microtracer); type: in vivo; conditions: human, SAD clinical trial, confirmed by intravenous microtracer
Experimental: A Phase 1 single-ascending dose (SAD) clinical trial of Compound I′ (Form I), which converts to or dissolves to provide its soluble form Compound I in the body, was conducted in order to assess neprilysin inhibition for the treatment of a range of cardiovascular and renal diseases, including, e.g., chronic kidney disease, diabetic nephropathy, acute and chronic heart failure, heart failure with reduced ejection fraction, heart failure with preserved ejection fraction, post-myocardial infarction asymptomatic left ventricular dysfunction (post-MI asymptomatic LVD), subacute heart failure and resistant and isolated systolic hypertension. Safety and tolerability, pharmacokinetic (support for QD/BID dosing and non-renal excretion), pharmacodynamic (test for target engagement biomarkers cGMP and ANP), food effect, and absolute oral bioavailability and renal elimination using a ^14C intravenous microtracer, inter alia, were tested.
The Phase 1 study was a double-blind, randomized placebo-controlled single ascending dose study in healthy male and female volunteers randomized in a 4:1 ratio. The study enrolled 56 healthy volunteers over multiple weeks for the ascending-dose portion, which included cohorts (n=10/cohort of 8 active and 2 placebo) administered single ascending doses of 50 mg, 100 mg, 200 mg, 400 mg and 600 mg. A sixth cohort (n=6) was administered i.v. microtracer and oral doses of 10 μg and 100 mg, respectively.

[6] = healthy subjects; cited from earlier work

Sequence of human neprilysin (NEP) (P08473 whole entry): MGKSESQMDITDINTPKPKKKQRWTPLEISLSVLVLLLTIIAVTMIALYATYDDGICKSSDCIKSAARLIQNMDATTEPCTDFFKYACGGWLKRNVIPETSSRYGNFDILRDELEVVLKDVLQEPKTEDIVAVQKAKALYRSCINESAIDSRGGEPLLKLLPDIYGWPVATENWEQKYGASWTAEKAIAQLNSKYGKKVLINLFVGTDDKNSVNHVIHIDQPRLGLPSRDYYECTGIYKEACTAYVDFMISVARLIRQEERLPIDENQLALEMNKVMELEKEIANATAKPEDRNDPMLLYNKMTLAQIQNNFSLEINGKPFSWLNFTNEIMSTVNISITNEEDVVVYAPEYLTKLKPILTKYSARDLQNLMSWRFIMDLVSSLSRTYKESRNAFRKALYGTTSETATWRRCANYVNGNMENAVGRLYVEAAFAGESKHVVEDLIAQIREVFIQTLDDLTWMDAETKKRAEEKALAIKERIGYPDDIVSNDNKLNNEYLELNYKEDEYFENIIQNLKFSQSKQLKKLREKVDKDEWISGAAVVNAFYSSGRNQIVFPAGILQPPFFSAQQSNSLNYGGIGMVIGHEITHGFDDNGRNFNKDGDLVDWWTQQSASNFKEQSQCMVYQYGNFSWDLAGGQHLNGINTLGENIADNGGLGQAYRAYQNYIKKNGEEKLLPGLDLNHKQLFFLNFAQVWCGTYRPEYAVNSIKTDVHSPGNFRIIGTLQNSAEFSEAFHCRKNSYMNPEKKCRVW
T1 sequence (P08473 whole entry): as above

## CCOC[C@](C)(C[C@@H](Cc1ccc(-c2cc(Cl)ccc2F)cc1)NC(=O)c1cc(O)no1)C(=O)O [Compound I′, (2S,4R)-5-(5′-chloro-2′-fluoro-[1,1′-biphenyl]-4-yl)-2-(ethoxymethyl)-4-(3-hydroxyisoxazole-5-carboxamido)-2-methylpentanoic acid]
[1]
  Ki: ≤ 1 nM
[2]; 25° C., 60% RH
  time for which the crystalline form remains stable: at least 18 months
[2]; 25° C., 60% RH, 0 months
  Assay: 98.6 % (w/w)
[2]; 25° C., 60% RH, 0 months, LOQ = 0.2%
  Water Content: <LOQ
[2]; 25° C., 60% RH, 3 months
  Assay: 98.5 % (w/w)
[2]; 25° C., 60% RH, 6 months
  Assay: 99.2 % (w/w)
[2]; 25° C., 60% RH, 6 months, LOQ = 0.19%
  Water Content: <LOQ
[2]; 25° C., 60% RH, 9 months
  Assay: 99.0 % (w/w)
[2]; 25° C., 60% RH, 12 months
  Assay: 99.2 % (w/w)
[2]; 25° C., 60% RH, 12 months, LOQ = 0.19%
  Water Content: <LOQ
[2]; 25° C., 60% RH, 18 months
  Assay: 99.1 % (w/w)
[2]; 40° C., 75% RH (accelerated), 0 months
  Assay: 98.6 % (w/w)
[2]; 40° C., 75% RH (accelerated), 0 months, LOQ = 0.2%
  Water Content: <LOQ
[2]; 40° C., 75% RH (accelerated), 1 month
  Assay: 98.5 % (w/w)
[2]; 40° C., 75% RH (accelerated), 3 months
  Assay: 98.6 % (w/w)
[2]; 40° C., 75% RH (accelerated), 3 months, LOQ = 0.22%
  Water Content: <LOQ
[2]; 40° C., 75% RH (accelerated), 6 months
  Assay: 99.0 % (w/w)
[2]; 40° C., 75% RH (accelerated), 6 months, LOQ = 0.19%
  Water Content: <LOQ
[2]; at 12-months
  water detected: no quantifiable amount of water is detected
[2]; measured by accelerated conditions of 40° C., 75% RH (6 months taken as equivalent to 2 years at 25° C., 60% RH)
  time for which the crystalline form remains stable: at least 2 years
[3]; 5-90% relative humidity, two sorption-desorption cycles
  hygroscopicity (DMS isotherm): non-hygroscopic solid
[3]; exposed to 5-90% relative humidity, 25° C.
  total moisture gain: less than 0.02 % by weight
[4]
  target engagement (plasma cGMP) on Day 14: target engagement of all doses at trough (0 h) as well as all doses measured up to 24 h
[5]
  renal elimination (of total administered dose): less than 1%

## CCOC(=O)[C@H](C)C[C@@H](Cc1ccc(-c2ccccc2)cc1)NC(=O)CCC(=O)O [sacubitril]
[6]
  renal elimination: 60%
